The target of experiment [1] is T1, NEP (Rattus norvegicus, UniProt P07861).
T1 sequence (P07861 1-750): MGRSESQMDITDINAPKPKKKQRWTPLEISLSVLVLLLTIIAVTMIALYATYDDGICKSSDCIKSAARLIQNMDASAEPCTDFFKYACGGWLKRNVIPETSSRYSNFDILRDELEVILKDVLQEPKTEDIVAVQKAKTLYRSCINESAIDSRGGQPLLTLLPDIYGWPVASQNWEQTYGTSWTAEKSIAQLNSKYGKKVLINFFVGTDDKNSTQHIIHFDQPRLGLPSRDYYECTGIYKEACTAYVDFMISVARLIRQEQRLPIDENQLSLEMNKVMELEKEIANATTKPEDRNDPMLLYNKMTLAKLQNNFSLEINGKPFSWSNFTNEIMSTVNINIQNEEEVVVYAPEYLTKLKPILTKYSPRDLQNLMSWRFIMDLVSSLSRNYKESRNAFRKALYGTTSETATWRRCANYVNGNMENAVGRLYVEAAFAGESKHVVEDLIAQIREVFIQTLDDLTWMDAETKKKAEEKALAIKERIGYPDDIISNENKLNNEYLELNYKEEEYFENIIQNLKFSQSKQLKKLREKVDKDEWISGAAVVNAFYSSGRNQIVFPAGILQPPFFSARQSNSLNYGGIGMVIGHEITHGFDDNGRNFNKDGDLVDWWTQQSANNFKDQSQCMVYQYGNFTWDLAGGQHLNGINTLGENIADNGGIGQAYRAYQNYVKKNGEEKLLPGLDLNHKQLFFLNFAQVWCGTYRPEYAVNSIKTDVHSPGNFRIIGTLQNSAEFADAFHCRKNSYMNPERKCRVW
In words: In vitro NEP-inhibitory activity in rat kidney cortex membranes ([3H][Leu5]-enkephaline hydrolysis). As to conditions: [3H][Leu5]-enkephaline 15 nM, 30° C., compounds of formula I tested as lithium salts. On the set-up: from tissue; host or cells: kidney cortex membranes of male Sprague-Dawley rats. It counts as biochemical. The protocol:
The NEP-inhibitory activity was evaluated in rat kidney cortex membranes prepared according to the procedure described by T. Maeda et al. in Biochim Biophys.
Cortex was carefully dissected, finely minced and suspended in a homogenization buffer (10 mM sodium phosphate pH 7.4 containing 1 mM MgCl2, 30 mM NaCl, 0.02% NaN3) 1:15 weight/volume.
The tissue was then homogenized for 30 seconds using an Ultra-Turrax homogenizer.
The membranes were collected from the buffer/sucrose interface, washed twice with 50 mM TRIS/HCl buffer (pH 7.4) and resuspended into the same buffer for storage.
The NEP-inhibitory activity was evaluated according to the method described by C.
Incubation (20 minutes at 30° C.) was stopped by adding HCl 0.1M (100 μl).
The percentage of inhibition of the metabolite formation in the membrane preparations treated with the compounds of formula I and with the comparative compounds with respect to the untreated membrane preparations was expressed as IC50 (nM) value.

The target of experiment [2] is T2, ACE (Oryctolagus cuniculus, UniProt P12822).
T2 construct: ACE (250 mU/ml purified by lung rabbit, EC 3.4.15.1 SIGMA); purchased SIGMA; host or cells: rabbit lung
T2 sequence (P12822 34-1310): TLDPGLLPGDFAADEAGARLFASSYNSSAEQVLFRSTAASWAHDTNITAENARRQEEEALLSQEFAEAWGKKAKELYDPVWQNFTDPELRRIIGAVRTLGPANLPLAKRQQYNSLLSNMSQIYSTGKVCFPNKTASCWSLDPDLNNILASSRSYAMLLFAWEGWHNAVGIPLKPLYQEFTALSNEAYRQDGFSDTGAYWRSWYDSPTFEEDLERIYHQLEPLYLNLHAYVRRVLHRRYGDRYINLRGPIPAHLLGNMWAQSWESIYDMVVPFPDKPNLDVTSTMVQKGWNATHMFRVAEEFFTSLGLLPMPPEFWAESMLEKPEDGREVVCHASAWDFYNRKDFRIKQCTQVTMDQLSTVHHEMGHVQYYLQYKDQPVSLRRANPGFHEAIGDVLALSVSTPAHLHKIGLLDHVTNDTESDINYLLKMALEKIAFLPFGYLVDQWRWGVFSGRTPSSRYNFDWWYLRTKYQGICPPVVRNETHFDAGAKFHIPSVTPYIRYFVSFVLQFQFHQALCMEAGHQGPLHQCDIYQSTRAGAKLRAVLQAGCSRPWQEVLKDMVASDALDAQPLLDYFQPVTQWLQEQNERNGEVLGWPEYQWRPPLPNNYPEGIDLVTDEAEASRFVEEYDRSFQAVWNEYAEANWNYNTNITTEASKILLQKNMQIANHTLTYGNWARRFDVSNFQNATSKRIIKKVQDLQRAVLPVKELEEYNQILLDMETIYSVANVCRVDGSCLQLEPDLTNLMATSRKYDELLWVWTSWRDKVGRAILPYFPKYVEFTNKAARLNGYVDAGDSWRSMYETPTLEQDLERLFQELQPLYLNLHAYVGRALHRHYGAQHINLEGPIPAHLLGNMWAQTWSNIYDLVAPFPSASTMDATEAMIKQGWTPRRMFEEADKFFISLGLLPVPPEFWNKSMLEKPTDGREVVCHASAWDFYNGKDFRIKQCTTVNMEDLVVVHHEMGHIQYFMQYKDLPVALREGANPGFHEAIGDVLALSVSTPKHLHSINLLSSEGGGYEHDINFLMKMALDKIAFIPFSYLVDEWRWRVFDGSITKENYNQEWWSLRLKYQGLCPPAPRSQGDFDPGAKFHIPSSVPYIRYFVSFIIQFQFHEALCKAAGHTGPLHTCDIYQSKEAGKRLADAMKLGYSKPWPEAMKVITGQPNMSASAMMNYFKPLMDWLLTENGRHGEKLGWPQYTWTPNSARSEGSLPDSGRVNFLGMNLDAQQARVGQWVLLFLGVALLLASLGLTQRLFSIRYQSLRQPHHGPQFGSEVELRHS
In words: In vitro ACE-inhibitory activity (FAPGG substrate, spectrophotometric). It counts as biochemical. Particulars: ACE purified by lung rabbit, FAPGG 0.8 mM, 37° C.; compounds of formula I tested as lithium salts. On the procedure: The reaction was started by adding furylacryloylphenylalanylglycylglycine 0.8 mM (FAPGG-SIGMA).
Contemporaneously, by using a Beckman DU-50 spectrophotometer provided with a program for calculating delta A/minutes and regression coefficients of the enzyme kinetics curves, the absorbance at 340 nm was recorded in continuo for 5 minutes.

In experiment [3] the target is T1, NEP. In words: Ex vivo NEP-inhibitory activity in kidneys of SHR after i.v. injection. On the set-up: After the removal of the kidneys from SHR, the renal tissue was homogenized; from tissue; host or cells: kidney homogenate of spontaneously hypertensive rats (SHR) dosed i.v; species or system spontaneously hypertensive rats (SHR). As to conditions: iv, 5 minutes after i.v. injection, 21 μmoles/kg, read-out: NEP-inhibitory activity (kidney) % of inhibition. The protocol:
After the removal of the kidneys from SHR, the renal tissue was homogenized and incubated for 15 minutes at 37° C. in the presence of Glutaryl-Ala-Ala-Phe-2-naphthyliamide (GAAP), as a substrate, and aminopeptidase M at pH 7.6. The reaction was stopped by adding an aqueous solution at 10% of trichloroacetic acid.
The released 2-naphthylamine was determined by adding fast garnet dye (2 ml).

Experiment [4] deals with T3, ACE (Rattus norvegicus, UniProt P47820).
T3 construct: After the removal of the lungs from SHR, the lung tissue was homogenized; from tissue; host or cells: lung homogenate of spontaneously hypertensive rats (SHR) dosed i.v
T3 sequence (P47820 36-1313): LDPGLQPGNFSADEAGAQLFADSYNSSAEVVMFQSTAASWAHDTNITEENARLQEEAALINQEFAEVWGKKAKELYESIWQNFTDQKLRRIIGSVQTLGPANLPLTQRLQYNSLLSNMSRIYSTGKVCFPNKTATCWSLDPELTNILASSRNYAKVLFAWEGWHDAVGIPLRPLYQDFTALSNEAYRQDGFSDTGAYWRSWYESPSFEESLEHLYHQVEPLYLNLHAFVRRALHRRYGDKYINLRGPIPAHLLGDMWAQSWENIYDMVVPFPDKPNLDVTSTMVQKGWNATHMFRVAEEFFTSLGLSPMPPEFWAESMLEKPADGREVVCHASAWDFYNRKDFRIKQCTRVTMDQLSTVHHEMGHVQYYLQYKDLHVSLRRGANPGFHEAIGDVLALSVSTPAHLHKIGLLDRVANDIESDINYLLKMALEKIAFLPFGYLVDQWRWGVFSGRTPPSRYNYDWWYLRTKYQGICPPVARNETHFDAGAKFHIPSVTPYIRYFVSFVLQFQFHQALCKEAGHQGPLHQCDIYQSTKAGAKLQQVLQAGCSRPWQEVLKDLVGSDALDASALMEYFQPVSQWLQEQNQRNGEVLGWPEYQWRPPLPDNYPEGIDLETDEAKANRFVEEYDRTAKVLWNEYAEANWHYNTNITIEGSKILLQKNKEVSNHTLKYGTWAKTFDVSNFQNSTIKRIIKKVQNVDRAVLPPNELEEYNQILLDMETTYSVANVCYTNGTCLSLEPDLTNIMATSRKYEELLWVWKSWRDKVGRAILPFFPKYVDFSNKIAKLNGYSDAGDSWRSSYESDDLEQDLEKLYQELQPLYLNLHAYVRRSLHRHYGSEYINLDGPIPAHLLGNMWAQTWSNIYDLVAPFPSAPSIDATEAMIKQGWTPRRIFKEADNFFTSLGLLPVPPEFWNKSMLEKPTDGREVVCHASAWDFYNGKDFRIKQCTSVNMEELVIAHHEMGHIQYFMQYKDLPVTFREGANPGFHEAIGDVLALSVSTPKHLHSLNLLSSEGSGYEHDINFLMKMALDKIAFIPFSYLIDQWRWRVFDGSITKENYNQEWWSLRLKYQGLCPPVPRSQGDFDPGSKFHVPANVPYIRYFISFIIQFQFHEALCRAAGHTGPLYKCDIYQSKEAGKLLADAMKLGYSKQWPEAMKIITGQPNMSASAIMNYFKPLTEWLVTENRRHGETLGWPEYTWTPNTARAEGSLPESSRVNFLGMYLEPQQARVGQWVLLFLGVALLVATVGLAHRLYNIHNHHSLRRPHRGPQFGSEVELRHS
In words: Ex vivo ACE-inhibitory activity in lungs of SHR after i.v. injection. On the set-up: species or system spontaneously hypertensive rats (SHR). Particulars: iv, 5 minutes after i.v. injection, 21 μmoles/kg, read-out: ACE-inhibitory activity (lung) % of inhibition. On the procedure: After the removal of the lungs from SHR, the lung tissue was homogenized and incubated for 2 hours at 37° C. in the presence of [^3H]Hyp-Gly-Gly, as a substrate.
The reaction was stopped by adding hydrochloric acid.
The released radio-labelled hyppuric acid was extracted with ethyl acetate and counted by liquid scintillation spectrometry, according to conventional methods.

Experimental findings from patent US6548480B1, “Phosphonic acid derivatives with metallopeptidase inhibitory activity” (Zambon Group S.p.A., priority 1995, dated 2003) are described below.

SMILES strings stand for the structures. Counter-ions that a name gives are not always drawn.

Regarding `C[C@H](CS)C(=O)N1CCC[C@H]1C(=O)O` [Captopril], the “NEP-inhibitory activity IC50 (nM)” value in experiment [1] is reported as “not active”.
Regarding `O=C(O)[C@H](Cc1ccccc1)NC(=O)[C@H](Cc1ccccc1)NP(=O)(O)CCCCc1ccccc1` [Compound R-1, N-[N′-(4-phenyl)butylphosphonyl-L-phenlalanyl]-L-phenylalanine dilithium salt], the values for the IC50 in experiment [2] and in experiment [1] were 20 nM and 5.5 nM, respectively. For the same molecule, the inhibition at 21 µmol/kg was 20% in experiment [3] and 25% in experiment [4].
